{
  "source": "patent US9809583B2",
  "about": "(priority 2014, dated 2017)",
  "note": "Structures can show the parent of a compound that is named as a salt.",
  "data": [
    {"target": "androgen receptor (hAR) (Homo sapiens (Human), UniProt P10275)", "sequence (P10275 whole entry)": "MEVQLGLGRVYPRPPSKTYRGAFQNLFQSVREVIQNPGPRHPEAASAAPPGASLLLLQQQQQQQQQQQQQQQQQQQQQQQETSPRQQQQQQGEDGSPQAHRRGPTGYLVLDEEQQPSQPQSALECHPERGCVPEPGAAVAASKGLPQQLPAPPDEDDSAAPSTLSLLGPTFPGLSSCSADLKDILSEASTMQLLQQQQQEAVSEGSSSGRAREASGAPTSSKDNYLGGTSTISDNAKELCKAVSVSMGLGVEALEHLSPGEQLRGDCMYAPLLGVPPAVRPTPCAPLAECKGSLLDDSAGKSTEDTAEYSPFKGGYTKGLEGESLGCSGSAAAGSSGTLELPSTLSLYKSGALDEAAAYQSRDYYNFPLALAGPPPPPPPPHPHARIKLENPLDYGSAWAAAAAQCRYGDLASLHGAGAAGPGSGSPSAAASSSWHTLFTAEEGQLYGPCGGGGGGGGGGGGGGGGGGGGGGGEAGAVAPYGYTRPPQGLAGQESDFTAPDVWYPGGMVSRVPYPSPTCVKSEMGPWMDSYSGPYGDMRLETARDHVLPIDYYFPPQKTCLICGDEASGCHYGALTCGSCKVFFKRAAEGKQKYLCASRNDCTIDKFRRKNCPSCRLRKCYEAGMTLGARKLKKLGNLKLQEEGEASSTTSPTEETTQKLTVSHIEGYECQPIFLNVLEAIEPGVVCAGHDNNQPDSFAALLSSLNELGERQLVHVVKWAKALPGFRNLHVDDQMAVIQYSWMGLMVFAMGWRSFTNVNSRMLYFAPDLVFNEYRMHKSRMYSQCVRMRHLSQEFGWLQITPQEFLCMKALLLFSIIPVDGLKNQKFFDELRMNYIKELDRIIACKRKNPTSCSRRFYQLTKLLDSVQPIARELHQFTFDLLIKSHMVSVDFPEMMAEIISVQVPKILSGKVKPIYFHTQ", "assay": "Test of transcriptional activity (hAR / ARE-Luc dual-luciferase assay in CHO cells)", "format": "cell-based", "conditions": "CHO cells with hAR and ARE-Luc, 24 hours; 10 nM DHT = 100%; read-out: EC50 [nM] (mean ± SE)", "protocol": "(§1) In order to examine the transcriptional activity of the agonists of the present invention, the following in-vitro experiment was performed. CHO (Chinese hamster ovary) cell line (ATCC, #CCL-61) was seeded in a 96-well plate at a density of 1.5×10^4 cells/well, and cultured for 24 hours. Then, a plasmid hAR and plasmid ARE-Luc-mixed medium was added thereto. The transfected cell line was treated with 0.1˜10,000 nM of SARM derivatives, and then allowed to react for 24 hours.", "units": {"EC50": "nM"}, "values": [
      {"compound": "Cc1cc(N2C[C@@H](COc3ccncc3)O[C@@H]2C(F)(F)F)ccc1[N+](=O)[O-]", "note": "[Example 69, (2R,5S)-3-(3-methyl-4-nitrophenyl)-5-((pyridin-4-yloxy)methyl)-2-(trifluoromethyl)oxazolidine]", "EC50": 1.54},
      {"compound": "Cc1cc(N2C[C@@H](COc3ccc(/C=N/O)cc3)O[C@@H]2C(F)(F)F)ccc1[N+](=O)[O-]", "note": "[Example 70, (E)-4-(((2R,5S)-3-(3-methyl-4-nitrophenyl)-2-(trifluoromethyl)oxazolidin-5-yl)methoxy)benzaldehyde oxime]", "EC50": 0.62},
      {"compound": "N#Cc1ccc(OC[C@@H]2CN(c3ccc([N+](=O)[O-])c(C(F)(F)F)c3)[C@H](C(F)(F)F)O2)cc1", "note": "[Example 81, 4-(((2S,5S)-3-(4-nitro-3-(trifluoromethyl)phenyl)-2-(trifluoromethyl)oxazolidin-5-yl)methoxy)benzonitrile]", "EC50": 59.5},
      {"compound": "Cc1cc(N2C[C@@H](COc3ccc(C#N)cc3)O[C@H]2C(F)(F)F)ccc1[N+](=O)[O-]", "note": "[Example 82, 4-(((2S,5S)-3-(3-methyl-4-nitrophenyl)-2-(trifluoromethyl)oxazolidin-5-yl)methoxy)benzonitrile]", "EC50": 21.1},
      {"compound": "O=[N+]([O-])c1ccc(N2C[C@@H](COc3ccc(/C=N/O)cc3)O[C@@H]2C(F)(F)F)cc1C(F)(F)F", "note": "[Example 87, (E)-4-(((2R,5S)-3-(4-nitro-3-(trifluoromethyl)phenyl)-2-(trifluoromethyl)oxazolidin-5-yl)methoxy)benzaldehyde oxime]", "EC50": 9.22}
    ]},
    {"target": "androgen receptor (hAR) (Homo sapiens (Human), UniProt P10275)", "assay": "Test of transcriptional activity (hAR / ARE-Luc dual-luciferase assay in CHO cells)", "format": "cell-based", "conditions": "EC50 [nM] (mean ± SE), CHO cells with hAR and ARE-Luc, 24 hours; 10 nM DHT = 100%", "protocol": "as §1", "units": {"EC50": "nM"}, "values": [
      {"compound": "N#Cc1ccc(N2C[C@@H](COc3ccnc(Cl)c3)O[C@@H]2C(F)(F)F)cc1C(F)(F)F", "note": "[Example 68, 4-((2R,5S)-5-(((2-chloropyridin-4-yl)oxy)methyl)-2-(trifluoromethyl)oxazolidin-3-yl)-2-(trifluoromethyl)benzonitrile]", "EC50": 6.06},
      {"compound": "N#Cc1ccc(OC[C@@H]2CN(c3ccc(C#N)c(Cl)c3)[C@@H](C(F)(F)F)O2)cc1", "note": "[Example 71, 2-chloro-4-((2R,5S)-5-((4-cyanophenoxy)methyl)-2-(trifluoromethyl)oxazolidin-3-yl)benzonitrile]", "EC50": 1.57},
      {"compound": "N#Cc1ccc(N2C[C@@H](COc3ccncc3)O[C@@H]2C(F)(F)F)cc1Cl", "note": "[Example 72, 2-chloro-4-((2R,5S)-5-((pyridin-4-yloxy)methyl)-2-(trifluoromethyl)oxazolidin-3-yl)benzonitrile]", "EC50": 1.03},
      {"compound": "N#Cc1ccc(OC[C@@H]2CN(c3ccc(C#N)c(Cl)c3)[C@@H](C(F)(F)F)O2)cn1", "note": "[Example 73, 5-(((2R,5S)-3-(3-chloro-4-cyanophenyl)-2-(trifluoromethyl)oxazolidin-5-yl)methoxy)picolinonitrile]", "EC50": 0.991},
      {"compound": "N#Cc1ccc(N2C[C@@H](COc3ccc(/C=N/O)cc3)O[C@@H]2C(F)(F)F)cc1Cl", "note": "[Example 74, 2-chloro-4-((2R,5S)-5-((4-((E)-(hydroxyimino)methyl)phenoxy)methyl)-2-(trifluoromethyl)oxazolidin-3-yl)benzonitrile]", "EC50": 0.658},
      {"compound": "Cc1c(N2C[C@@H](COc3ccc(C#N)cc3)O[C@@H]2C(F)(F)F)ccc(C#N)c1Cl", "note": "[Example 75, 2-chloro-4-((2R,5S)-5-((4-cyanophenoxy)methyl)-2-(trifluoromethyl)oxazolidin-3-yl)-3-methylbenzonitrile]", "EC50": 37},
      {"compound": "Cc1c(N2C[C@@H](COc3ccncc3)O[C@@H]2C(F)(F)F)ccc(C#N)c1Cl", "note": "[Example 76, 2-chloro-3-methyl-4-((2R,5S)-5-((pyridin-4-yloxy)methyl)-2-(trifluoromethyl)oxazolidin-3-yl)benzonitrile]", "EC50": 21.8},
      {"compound": "Cc1c(N2C[C@@H](COc3ccc(C#N)nc3)O[C@@H]2C(F)(F)F)ccc(C#N)c1Cl", "note": "[Example 77, 5-(((2R,5S)-3-(3-chloro-4-cyano-2-methylphenyl)-2-(trifluoromethyl)oxazolidin-5-yl)methoxy)picolinonitrile]", "EC50": 10.6},
      {"compound": "Cc1c(N2C[C@@H](COc3ccc(/C=N/O)cc3)O[C@@H]2C(F)(F)F)ccc(C#N)c1Cl", "note": "[Example 78, 2-chloro-4-((2R,5S)-5-((4-((E)-(hydroxyimino)methyl)phenoxy)methyl)-2-(trifluoromethyl)oxazolidin-3-yl)-3-methylbenzonitrile]", "EC50": 4.91},
      {"compound": "N#Cc1ccc(N2C[C@@H](COc3ccncc3)O[C@H]2C(F)(F)F)cc1C(F)(F)F", "note": "[Example 80, 4-((2S,5S)-5-((pyridin-4-yloxy)methyl)-2-(trifluoromethyl)oxazolidin-3-yl)-2-(trifluoromethyl)benzonitrile]", "EC50": 34},
      {"compound": "N#Cc1ccc(OC[C@@H]2CN(c3ccc(C#N)c(Cl)c3)[C@H](C(F)(F)F)O2)cc1", "note": "[Example 83, 2-chloro-4-((2S,5S)-5-((4-cyanophenoxy)methyl)-2-(trifluoromethyl)oxazolidin-3-yl)benzonitrile]", "EC50": 29.6},
      {"compound": "Cc1c(N2C[C@@H](COc3ccc(C#N)cc3)O[C@H]2C(F)(F)F)ccc(C#N)c1Cl", "note": "[Example 84, 2-chloro-4-((2S,5S)-5-((4-cyanophenoxy)methyl)-2-(trifluoromethyl)oxazolidin-3-yl)-3-methylbenzonitrile]", "EC50": 1140},
      {"compound": "CO/N=C/c1ccc(OC[C@@H]2CN(c3ccc(C#N)c(C(F)(F)F)c3)[C@@H](C(F)(F)F)O2)cc1", "note": "[Example 85, 4-((2R,5S)-5-((4-((E)-(methoxyimino)methyl)phenoxy)methyl)-2-(trifluoromethyl)oxazolidin-3-yl)-2-(trifluoromethyl)benzonitrile]", "EC50": 9.84},
      {"compound": "CC(C)(C)OC(=O)NCc1ccc(OC[C@@H]2CN(c3ccc(C#N)c(C(F)(F)F)c3)[C@@H](C(F)(F)F)O2)cc1", "note": "[Example 88]", "EC50": 926},
      {"compound": "N#Cc1ccc(N2C[C@@H](COc3ccc(CN)cc3)O[C@@H]2C(F)(F)F)cc1C(F)(F)F", "note": "[Example 89, 4-((2R,5S)-5-((4-(aminomethyl)phenoxy)methyl)-2-(trifluoromethyl)oxazolidin-3-yl)-2-(trifluoromethyl)benzonitrile hydrochloride]", "EC50": 34.2},
      {"compound": "N#Cc1ccc(N2C[C@@H](COc3ccc(NC(=O)CO)cc3)O[C@@H]2C(F)(F)F)cc1C(F)(F)F", "note": "[Example 94, N-(4-(((2R,5S)-3-(4-cyano-3-(trifluoromethyl)phenyl)-2-(trifluoromethyl)oxazolidin-5-yl)methoxy)phenyl)-2-hydroxyacetamide]", "EC50": 4.12},
      {"compound": "N#CCC(=O)Nc1ccc(OC[C@@H]2CN(c3ccc(C#N)c(C(F)(F)F)c3)[C@@H](C(F)(F)F)O2)cc1", "note": "[Example 95, 2-cyano-N-(4-(((2R,5S)-3-(4-cyano-3-(trifluoromethyl)phenyl)-2-(trifluoromethyl)oxazolidin-5-yl)methoxy)phenyl)acetamide]", "EC50": 2.81},
      {"compound": "N#Cc1ccc(N2C[C@@H](COc3ccc(/C=N/O)cc3[N+](=O)[O-])O[C@@H]2C(F)(F)F)cc1C(F)(F)F", "note": "[Example 98, 4-((2R,5S)-5-((4-((E)-(hydroxyimino)methyl)-2-nitrophenoxy)methyl)-2-(trifluoromethyl)oxazolidin-3-yl)-2-(trifluoromethyl)benzonitrile]", "EC50": 2.91},
      {"compound": "N#Cc1ccc(OC[C@@H]2CN(c3ccc(C#N)c(C(F)(F)F)c3)[C@@H](C(F)(F)F)O2)c([N+](=O)[O-])c1", "note": "[Example 99, 4-((2R,5S)-5-((4-cyano-2-nitrophenoxy)methyl)-2-(trifluoromethyl)oxazolidin-3-yl)-2-(trifluoromethyl)benzonitrile]", "EC50": 97.3},
      {"compound": "N#Cc1ccc(N2C[C@@H](C(=O)Nc3ccc([N+](=O)[O-])cc3F)O[C@@H]2C(F)(F)F)cc1C(F)(F)F", "note": "[Example 104]", "EC50": 24.9},
      {"compound": "N#Cc1ccc(N2C[C@@H](C(=O)Nc3ccc(N)cc3F)O[C@@H]2C(F)(F)F)cc1C(F)(F)F", "note": "[Example 105, (2R,5S)-N-(4-amino-2-fluorophenyl)-3-(4-cyano-3-(trifluoromethyl)phenyl)-2-(trifluoromethyl)oxazolidine-5-carboxamide]", "EC50": 49.9},
      {"compound": "CC(=O)Nc1ccc(NC(=O)[C@@H]2CN(c3ccc(C#N)c(C(F)(F)F)c3)[C@@H](C(F)(F)F)O2)c(F)c1", "note": "[Example 106, (2R,5S)-N-(4-acetamido-2-fluorophenyl)-3-(4-cyano-3-(trifluoromethyl)phenyl)-2-(trifluoromethyl)oxazolidine-5-carboxamide]", "EC50": 154},
      {"compound": "N#Cc1ccc(N2C[C@@H](C(=O)Nc3ccncc3)O[C@@H]2C(F)(F)F)cc1C(F)(F)F", "note": "[Example 107, (2R,5S)-3-(4-cyano-3-(trifluoromethyl)phenyl)-N-(pyridin-4-yl)-2-(trifluoromethyl)oxazolidine-5-carboxamide]", "EC50": 7.18},
      {"compound": "N#Cc1ccc(NC(=O)[C@@H]2CN(c3ccc(C#N)c(C(F)(F)F)c3)[C@@H](C(F)(F)F)O2)cn1", "note": "[Example 108, (2R,5S)-3-(4-cyano-3-(trifluoromethyl)phenyl)-N-(6-cyanopyridin-3-yl)-2-(trifluoromethyl)oxazolidine-5-carboxamide]", "EC50": 17},
      {"compound": "CC(=O)Nc1ccc(NC(=O)[C@@H]2CN(c3ccc(C#N)c(C(F)(F)F)c3)[C@@H](C(F)(F)F)O2)cc1", "note": "[Example 109, (2R,5S)-N-(4-acetamidophenyl)-3-(4-cyano-3-(trifluoromethyl)phenyl)-2-(trifluoromethyl)oxazolidine-5-carboxamide]", "EC50": 5.09},
      {"compound": "N#Cc1ccc(N2C[C@@H](C(=O)Nc3cccnc3)O[C@@H]2C(F)(F)F)cc1C(F)(F)F", "note": "[Example 110, (2R,5S)-3-(4-cyano-3-(trifluoromethyl)phenyl)-N-(pyridin-3-yl)-2-(trifluoromethyl)oxazolidine-5-carboxamide]", "EC50": 80},
      {"compound": "N#Cc1ccc(NC(=O)[C@@H]2CN(c3ccc(C#N)c(C(F)(F)F)c3)[C@@H](C(F)(F)F)O2)cc1", "note": "[Example 138, (2R,5S)-3-(4-cyano-3-(trifluoromethyl)phenyl)-N-(4-cyanophenyl)-2-(trifluoromethyl)oxazolidine-5-carboxamide]", "EC50": 17.3}
    ]}
  ]
}
